Results taken from US4769378A, “Indenopyrimidine aromatase inhibitors” (Eli Lilly and Company, priority 1986, dated 1988).
Read-outs that look alike come from different tables or passages of the source.

Experiments:
aromatase = molecular target: T1, aromatase (Rattus norvegicus, UniProt P22443); assay: Aromatase inhibition in the rat ovarian microsome assay; format: biochemical; settings: substrate (androstenedione) concentration 0.1 μM; rat ovarian microsomes; read-out: EC50 (concentration of compound required to achieve 50% inhibition of aromatase activity)
T1 construct: ovarian microsomes are obtained from rats treated with pregnant mares serum gonadotropin; from tissue; host or cells: rat ovary microsomes (rats treated with pregnant mares serum gonadotropin)
T1 sequence (P22443 1-508): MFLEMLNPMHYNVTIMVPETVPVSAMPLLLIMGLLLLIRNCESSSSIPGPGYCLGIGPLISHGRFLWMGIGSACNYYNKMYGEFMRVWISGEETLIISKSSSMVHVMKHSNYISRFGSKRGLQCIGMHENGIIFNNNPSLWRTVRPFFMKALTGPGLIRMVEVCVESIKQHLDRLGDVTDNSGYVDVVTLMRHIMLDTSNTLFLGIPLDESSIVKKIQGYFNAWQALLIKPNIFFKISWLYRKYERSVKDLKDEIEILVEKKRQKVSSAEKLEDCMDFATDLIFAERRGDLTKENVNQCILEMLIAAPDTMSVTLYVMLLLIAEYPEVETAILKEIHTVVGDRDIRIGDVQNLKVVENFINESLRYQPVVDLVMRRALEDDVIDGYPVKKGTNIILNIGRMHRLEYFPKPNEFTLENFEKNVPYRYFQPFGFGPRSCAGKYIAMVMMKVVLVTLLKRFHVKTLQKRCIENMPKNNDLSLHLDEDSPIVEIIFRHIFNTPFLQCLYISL
Description: In this test system, ovarian microsomes are obtained from rats treated with pregnant mares serum gonadotropin. Test compounds are added to reaction vials containing 0.1 μM 4-androstene-3,17-dione, 100,000 dpm 1,2[^3 H]-androstenedione, the microsomes and a NADPH generating system. The concentrations of the inhibitors tested ranged between 5 and 10000 nM. […] Potency is determined based on the concentration of inhibitor in nM required to produce a 50% inhibition of enzyme activity (EC50) when the concentration of substrate (androstenedione) is 0.1 μM.

[1] = test system: Estrogen synthesis (aromatization); assay: Estrogen Synthesis Inhibition in Rats; format: in vivo, immature female Wistar rats; settings: Rattus norvegicus, po, 168 h, gavage; for response vs control in vivo at 3 mg/kg: 3 mg/kg × 7 days; for response vs control in vivo at 10 mg/kg: 10 mg/kg × 7 days; for response vs control in vivo at 30 mg/kg: 30 mg/kg × 7 days;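 as to Uterine Wt. %: 100% equals the stimulated control's weight gain over the unstimulated control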
Description: By virtue of their ability to inhibit the enzyme aromatase, the compounds of this invention are able to inhibit the synthesis of estrogens in mammals, thereby making the compounds useful in the treatment of estrogen-dependent diseases, such as breast cancer.
Immature female Wistar rats (45-55 grams) were divided into control and test groups of 2-8 animals each. Test compounds were administered for seven days daily by gavage in corn oil. Control animals received corn oil without the test compound. Beginning on the fourth day of the test, all animals treated with the test compound and one half of the control animals were given a subcutaneous injection of 1.0 mg of testosterone propionate in corn oil. The remaining control animals received only an equivalent volume of corn oil. On the seventh day of the test, rats treated with testosterone propionate were injected subcutaneously with 100 μCi of [^3 H]-testosterone in 50 μl of saline-ethanol (3:1).
After two hours, the animals were killed by decapitation. Uteri were isolated, trimmed of extraneous connective tissue, and weighed. […] In the control animals treated with testosterone propionate, estrogens produced by aromatization stimulated the uterus resulting in an increase in weight.
Ovaries from rats treated with [^3 H]-testosterone were excised, cleaned of extraneous tissue, and homogenized in 2.5 ml of a 1.0 mM potassium phosphate buffer containing 3.0 mM MgCl2.6H2 O, 320 mM sucrose, and 0.25% Triton X-100 (polyethylene glycol p-isooctyl phenyl ether, Rohm and Haas) at pH 6.5. The ovarian steroids were extracted with 1.5 ml of 9:1 toluene/ethanol to which had been added 25 to 100 mcg each of unlabelled estradiol, estriol, and estrone, and approximately 1000 dpm of [^14 C]-estradiol. The samples were vortexed, centrifuged at 500×g for 10 minutes, and the organic phase was transferred to a conical vial. Two additional extractions were performed on the residue in the same way. The pooled organic extracts were evaporated for subsequent thin-layer chromatography.
Ovarian proteins were precipitated by the addition of 5.0 ml of ethanol to the remaining aqueous phase. After an overnight incubation at 4° C., the samples were centrifuged at 1500×g for 10 minutes. The supernatant was discarded and the pellet was dissolved in 0.3 N potassium hydroxide. Protein was determined according to the method of Bradford, Analytical Biochemistry, 72, 248 (1976).
The organic residue from each above extraction was redissolved in 9:1 dichloromethane/methanol. The solution of each sample was applied to separate silica gel thin layer chromatography plates which contained a fluorescent indicator. The plates were developed the first dimension with 160:38:1.5:0.5 dichloromethane/ethyl acetate/methanol/acetic acid to within 3 cm of the top of the plate. After air-drying, the plate was developed in the second dimension with 180:19:1 dichloromethane/methanol/ammonium hydroxide. The plate was air-dried and viewed under 254 nm UV light.
The visible spots were marked and the plates were sprayed with primulin (0.001% in 4:1 acetone/water) according to the method of Wright, J. Chromatography, 59, 220 (1971) which allowed for the identification of additional steroids under 365 nm UV light. The spots were scraped from the plate using a glass wool plugged Pasteur pipet attached to a vacuum line. The steroids were eluted directly into scintillation vials by the addition of 0.2 ml of dichloromethane followed by two washes each of 2.0 ml of methanol. The organic solvent was evaporated and 10.0 ml of scintillation fluid (Beckman Ready Solv-NA) was added to the vials. Samples were analyzed by liquid scintillation spectrometry and the corrections were made based on the recoveries of the [^14 C]-steroid.
In Table 2, values for uterine weight are expressed as the respective weights of drug treated (DT), unstimulated corn oil control (UC), and stimulated corn oil control (SC) according to the calculation %=100 (DT-UC)/(SC-UC). […]

[2] = test system: DMBA-induced mammary tumors; assay: DMBA-induced Mammary Tumor Inhibition; format: in vivo, female Sprague-Dawley rats
Description: Mammary tumors were produced in female Sprague-Dawley rats which were 50-60 days old by the gavage administration of 20 mg of 7,12-dimethylbenz[a]anthracene (DMBA). About six weeks after DMBA administration, the mammary glands were palpated at weekly intervals for the appearance of tumors. Whenever one or more tumors appeared and were measurable in an animal, that animal was selected for experimentation. […] Each control and test group contained 5-8 animals. Each test compound was administered in corn oil once daily by gavage. Every experiment included a group of control rats having tumors and were given corn oil vehicle by gavage. […] The area of each tumor was calculated by multiplying the shortest and longest diameters of the tumor. The treatment and measurement of animals continued for 4-6 weeks at which time the final areas of the tumors were determined. For each compound (and control) at each dose level, the change in the mean tumor area was determined. The mean change was analyzed for its significance using Dunnett's t-test.

breast cancer = settings: Cancer Research, Vol. 42, Suppl 8 (1982); cited from earlier work
[3] = 100 (DT-UC)/(SC-UC), read-out: Uterine Wt. %
[4] = ovaries, percent of testosterone-treated controls, read-out: % steroid concentration, estradiol
[5] = ovaries, percent of testosterone-treated controls, read-out: % steroid concentration, estrone

Structure (SMILES) | EC50 (aromatase) | response vs control in vivo at 3 mg/kg [1, 3] | response vs control in vivo at 3 mg/kg [1, 4] | response vs control in vivo at 3 mg/kg [1, 5] | response vs control in vivo at 10 mg/kg [1, 3] | response vs control in vivo at 10 mg/kg [1, 4] | response vs control in vivo at 10 mg/kg [1, 5] | response vs control in vivo at 30 mg/kg [1, 3] | response vs control in vivo at 30 mg/kg [1, 4] | response vs control in vivo at 30 mg/kg [1, 5] | Final Tumor Area ± S.E. ([2]; Test I, 3 mg/kg daily by gavage, 4 weeks, control 741 ± 193) | Final Tumor Area ± S.E. ([2]; Test I, 10 mg/kg daily by gavage, 4 weeks, control 741 ± 193) | Final Tumor Area ± S.E. ([2]; Test I, 30 mg/kg daily by gavage, 4 weeks, control 741 ± 193) | effect in treatment of breast cancer (breast cancer) | Final Tumor Area ± S.E. ([2]; Test III, 10 mg/kg daily by gavage, 6 weeks, control 2053 ± 778) | Final Tumor Area ± S.E. ([2]; Test III, 30 mg/kg daily by gavage, 6 weeks, control 2053 ± 778) | Final Tumor Area ± S.E. ([2]; Test II, 10 mg/kg daily by gavage, 4 weeks, control 698 ± 78) | Final Tumor Area ± S.E. ([2]; Test II, 30 mg/kg daily by gavage, 4 weeks, control 698 ± 78) | Final Tumor Area ± S.E. ([2]; Test II, 50 mg/kg daily by gavage, 4 weeks, control 698 ± 78)
C[C@]12CCC(=O)C=C1CC[C@@H]1[C@@H]2CC[C@]2(C)OC(=O)CC[C@@H]12 [testololactone] | – | – | – | – | – | – | – | – | – | – | – | – | – | beneficial effect in treatment of breast cancer | – | – | – | – | –
Clc1ccc(C2c3ccccc3-c3ncncc32)cc1 (stereo not shown) [Example 2, 5-(4-chlorophenyl)-5H-indeno[1,2-d]pyrimidine] | 21 nM | 49.1% | 40.5% | 106% | – | – | – | 33.3% | 19.4% | 83.2% | – | – | – | – | – | – | 287 ± 94 mm^2 | 814 ± 223 mm^2 | 552 ± 177 mm^2
CCC1(c2ccc(N)cc2)CCC(=O)NC1=O (stereo not shown) [aminoglutethimide] | – | – | – | – | – | – | – | – | – | – | – | – | – | beneficial effect in treatment of breast cancer | – | – | – | – | –

Now from value to compound, other results behind:

EC50 (aromatase) | Structure (SMILES) | response vs control in vivo at 3 mg/kg [1, 3] | response vs control in vivo at 3 mg/kg [1, 4] | response vs control in vivo at 3 mg/kg [1, 5] | response vs control in vivo at 10 mg/kg [1, 3] | response vs control in vivo at 10 mg/kg [1, 4] | response vs control in vivo at 10 mg/kg [1, 5] | response vs control in vivo at 30 mg/kg [1, 3] | response vs control in vivo at 30 mg/kg [1, 4] | response vs control in vivo at 30 mg/kg [1, 5] | Final Tumor Area ± S.E. ([2]; Test I, 3 mg/kg daily by gavage, 4 weeks, control 741 ± 193) | Final Tumor Area ± S.E. ([2]; Test I, 10 mg/kg daily by gavage, 4 weeks, control 741 ± 193) | Final Tumor Area ± S.E. ([2]; Test I, 30 mg/kg daily by gavage, 4 weeks, control 741 ± 193) | effect in treatment of breast cancer (breast cancer) | Final Tumor Area ± S.E. ([2]; Test III, 10 mg/kg daily by gavage, 6 weeks, control 2053 ± 778) | Final Tumor Area ± S.E. ([2]; Test III, 30 mg/kg daily by gavage, 6 weeks, control 2053 ± 778) | Final Tumor Area ± S.E. ([2]; Test II, 10 mg/kg daily by gavage, 4 weeks, control 698 ± 78) | Final Tumor Area ± S.E. ([2]; Test II, 30 mg/kg daily by gavage, 4 weeks, control 698 ± 78) | Final Tumor Area ± S.E. ([2]; Test II, 50 mg/kg daily by gavage, 4 weeks, control 698 ± 78)
24 nM | Clc1ccc(C2c3ccc(Cl)cc3-c3ncncc32)cc1 (stereo not shown) [Example 1, 8-chloro-5-(4-chlorophenyl)-5H-indeno[1,2-d]pyrimidine] | 50.2% | 31.5% | 31.5% | 37.3% | 17.2% | 31.4% | 20.6% | 23.6% | 118% | 162 ± 93 mm^2 | 74 ± 45 mm^2 | 6 ± 6 mm^2 | – | – | – | – | – | –
24 nM | Fc1ccc(C2c3ccc(F)cc3-c3ncncc32)cc1 (stereo not shown) [Example 6, 8-fluoro-5-(4-fluorophenyl)-5H-indeno[1,2-d]pyrimidine] | 0.7% | 10.2% | 70.3% | – | – | – | 6.9% | 2.9% | 57.1% | – | – | – | – | 109 ± 62 mm^2 | 393 ± 254 mm^2 | – | – | –
